Results from PubChem BioAssay (NCI).
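Step 1: Grow cells in 96-well plates. Step 2: Expose to compound for 48 hours at 5 concentrations. Step 3: Interpolate endpoints linearly; if unreached, use highest concentration. TGI is the concentration that stops growth completely.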

Key:
Assay in all cases: NCI tumour cell line growth inhibition, 48 h
HCT-116 colon = test system: HCT-116 colon
KM20L2 colon = test system: KM20L2 colon
SF-268 CNS = test system: SF-268 CNS
NCI-H460 lung = test system: NCI-H460 lung
LOX IMVI melanoma = test system: LOX IMVI melanoma
DMS 273 small cell lung = test system: DMS 273 small cell lung
OVCAR-4 ovarian = test system: OVCAR-4 ovarian
RXF-631 renal = test system: RXF-631 renal
HT29 colon = test system: HT29 colon
RXF 393 renal = test system: RXF 393 renal
SNB-75 CNS = test system: SNB-75 CNS
KM12 colon = test system: KM12 colon
SK-MEL-5 melanoma = test system: SK-MEL-5 melanoma
SN12C renal = test system: SN12C renal
UACC-62 melanoma = test system: UACC-62 melanoma
A549 NSCLC = test system: A549 NSCLC
HCC-2998 colon = test system: HCC-2998 colon
CCRF-CEM leukemia = test system: CCRF-CEM leukemia
RPMI-8226 leukemia = test system: RPMI-8226 leukemia
SK-OV-3 ovarian = test system: SK-OV-3 ovarian
DMS 114 small cell lung = test system: DMS 114 small cell lung
SNB-78 CNS = test system: SNB-78 CNS
UO-31 renal = test system: UO-31 renal
NCI-H226 lung = test system: NCI-H226 lung
SR leukemia = test system: SR leukemia
TK-10 renal = test system: TK-10 renal
SW-620 colon = test system: SW-620 colon
K-562 leukemia = test system: K-562 leukemia
EKVX NSCLC = test system: EKVX NSCLC
M14 melanoma = test system: M14 melanoma
HL-60(TB) leukemia = test system: HL-60(TB) leukemia
SNB-19 CNS = test system: SNB-19 CNS
HOP-92 NSCLC = test system: HOP-92 NSCLC
IGROV1 ovarian = test system: IGROV1 ovarian
SF-295 CNS = test system: SF-295 CNS
HCT-15 colon = test system: HCT-15 colon
M19-MEL melanoma = test system: M19-MEL melanoma
SF-539 CNS = test system: SF-539 CNS
DLD-1 colon = test system: DLD-1 colon
COLO 205 colon = test system: COLO 205 colon
NCI-H23 lung = test system: NCI-H23 lung
OVCAR-8 ovarian = test system: OVCAR-8 ovarian
HOP-62 NSCLC = test system: HOP-62 NSCLC
CAKI-1 renal = test system: CAKI-1 renal
MOLT-4 leukemia = test system: MOLT-4 leukemia
OVCAR-3 ovarian = test system: OVCAR-3 ovarian
OVCAR-5 ovarian = test system: OVCAR-5 ovarian
UACC-257 melanoma = test system: UACC-257 melanoma
NCI-H522 lung = test system: NCI-H522 lung
XF 498 CNS = test system: XF 498 CNS
MALME-3M melanoma = test system: MALME-3M melanoma
U251 CNS = test system: U251 CNS
A498 renal = test system: A498 renal
LXFL 529 NSCLC = test system: LXFL 529 NSCLC
786-0 renal = test system: 786-0 renal
SK-MEL-28 melanoma = test system: SK-MEL-28 melanoma
ACHN renal = test system: ACHN renal
HOP-18 NSCLC = test system: HOP-18 NSCLC
SK-MEL-2 melanoma = test system: SK-MEL-2 melanoma
P388/ADR leukemia = test system: P388/ADR leukemia
HS 578T breast = test system: HS 578T breast
NCI/ADR-RES ovarian = test system: NCI/ADR-RES ovarian
MDA-N = test system: MDA-N
DU-145 prostate = test system: DU-145 prostate
MCF7 breast = test system: MCF7 breast
PC-3 prostate = test system: PC-3 prostate
T-47D breast = test system: T-47D breast
MDA-MB-435 = test system: MDA-MB-435
MDA-MB-231 breast = test system: MDA-MB-231 breast
SN12K1 renal = test system: SN12K1 renal
P388 leukemia = test system: P388 leukemia
BT-549 breast = test system: BT-549 breast

Compound: N#CC(C#N)=C1NC(=O)C(c2ccccc2)C(=O)N1 (stereo unspecified)
- TGI (HCT-116 colon): > 100 µM
- TGI (KM20L2 colon): > 100 µM
- TGI (SF-268 CNS): > 100 µM
- TGI (NCI-H460 lung): > 100 µM
- TGI (LOX IMVI melanoma): > 100 µM
- TGI (DMS 273 small cell lung): > 100 µM
- TGI (OVCAR-4 ovarian): > 100 µM
- TGI (RXF-631 renal): > 100 µM
- TGI (HT29 colon): > 100 µM
- TGI (RXF 393 renal): > 100 µM
- TGI (SNB-75 CNS): > 100 µM
- TGI (KM12 colon): > 100 µM
- TGI (SK-MEL-5 melanoma): > 100 µM
- TGI (SN12C renal): > 100 µM
- TGI (UACC-62 melanoma): > 100 µM
- TGI (A549 NSCLC): > 100 µM
- TGI (HCC-2998 colon): > 100 µM
- TGI (CCRF-CEM leukemia): > 100 µM
- TGI (RPMI-8226 leukemia): > 100 µM
- TGI (SK-OV-3 ovarian): > 100 µM
- TGI (DMS 114 small cell lung): > 100 µM
- TGI (SNB-78 CNS): > 100 µM
- TGI (UO-31 renal): > 100 µM
- TGI (NCI-H226 lung): > 100 µM
- TGI (SR leukemia): > 100 µM
- TGI (TK-10 renal): > 100 µM
- TGI (SW-620 colon): > 100 µM
- TGI (K-562 leukemia): > 100 µM
- TGI (EKVX NSCLC): > 100 µM
- TGI (M14 melanoma): > 100 µM
- TGI (HL-60(TB) leukemia): > 100 µM
- TGI (SNB-19 CNS): > 100 µM
- TGI (HOP-92 NSCLC): > 100 µM
- TGI (IGROV1 ovarian): > 100 µM
- TGI (SF-295 CNS): > 100 µM
- TGI (HCT-15 colon): > 100 µM
- TGI (M19-MEL melanoma): > 100 µM
- TGI (SF-539 CNS): > 100 µM
- TGI (DLD-1 colon): > 100 µM
- TGI (COLO 205 colon): > 100 µM
- TGI (NCI-H23 lung): > 100 µM
- TGI (OVCAR-8 ovarian): > 100 µM
- TGI (HOP-62 NSCLC): > 100 µM
- TGI (CAKI-1 renal): > 100 µM
- TGI (MOLT-4 leukemia): > 100 µM
- TGI (OVCAR-3 ovarian): > 100 µM
- TGI (OVCAR-5 ovarian): > 100 µM
- TGI (UACC-257 melanoma): > 100 µM
- TGI (NCI-H522 lung): > 100 µM
- TGI (XF 498 CNS): > 100 µM
- TGI (MALME-3M melanoma): > 100 µM
- TGI (U251 CNS): > 100 µM
- TGI (A498 renal): > 100 µM
- TGI (LXFL 529 NSCLC): > 100 µM
- TGI (786-0 renal): > 100 µM

Compound: CCC(=O)O[C@@H]1C2C(OC(C)=O)C34COC(C)([C@@H]3C3C(C[C@]3(C)OC(C)=O)[C@@H](OC(=O)c3ccccc3)C4=O)[C@H](OC(C)=O)[C@@]2(OC(C)=O)C[C@@H]1C (stereo partly specified)
- TGI (HCT-116 colon): > 100 µM
- TGI (KM20L2 colon): > 100 µM
- TGI (SF-268 CNS): > 100 µM
- TGI (NCI-H460 lung): > 100 µM
- TGI (LOX IMVI melanoma): > 100 µM
- TGI (DMS 273 small cell lung): > 100 µM
- TGI (OVCAR-4 ovarian): 44.7 µM
- TGI (RXF-631 renal): > 100 µM
- TGI (SK-MEL-28 melanoma): > 100 µM
- TGI (HT29 colon): > 100 µM
- TGI (ACHN renal): > 100 µM
- TGI (SNB-75 CNS): 12.4 µM
- TGI (KM12 colon): > 100 µM
- TGI (SK-MEL-5 melanoma): 51 µM
- TGI (SN12C renal): > 100 µM
- TGI (UACC-62 melanoma): > 100 µM
- TGI (A549 NSCLC): > 100 µM
- TGI (HCC-2998 colon): > 100 µM
- TGI (CCRF-CEM leukemia): 36.8 µM
- TGI (RPMI-8226 leukemia): > 100 µM
- TGI (SK-OV-3 ovarian): 83.1 µM
- TGI (DMS 114 small cell lung): 51.3 µM
- TGI (SNB-78 CNS): 73.4 µM
- TGI (UO-31 renal): > 100 µM
- TGI (NCI-H226 lung): 41.4 µM
- TGI (SR leukemia): > 100 µM
- TGI (TK-10 renal): 46 µM
- TGI (SW-620 colon): > 100 µM
- TGI (EKVX NSCLC): > 100 µM
- TGI (M14 melanoma): > 100 µM
- TGI (HL-60(TB) leukemia): 30 µM
- TGI (SNB-19 CNS): 45.8 µM
- TGI (HOP-92 NSCLC): 40.8 µM
- TGI (IGROV1 ovarian): 40 µM
- TGI (SF-295 CNS): 48.7 µM
- TGI (HCT-15 colon): 29.5 µM
- TGI (M19-MEL melanoma): > 100 µM
- TGI (SF-539 CNS): 47.5 µM
- TGI (DLD-1 colon): > 100 µM
- TGI (COLO 205 colon): > 100 µM
- TGI (NCI-H23 lung): 45 µM
- TGI (OVCAR-8 ovarian): > 100 µM
- TGI (HOP-62 NSCLC): > 100 µM
- TGI (CAKI-1 renal): > 100 µM
- TGI (MOLT-4 leukemia): > 100 µM
- TGI (HOP-18 NSCLC): > 100 µM
- TGI (SK-MEL-2 melanoma): > 100 µM
- TGI (OVCAR-3 ovarian): 82.7 µM
- TGI (OVCAR-5 ovarian): > 100 µM
- TGI (UACC-257 melanoma): > 100 µM
- TGI (NCI-H522 lung): > 100 µM
- TGI (MALME-3M melanoma): > 100 µM
- TGI (U251 CNS): 46 µM
- TGI (LXFL 529 NSCLC): > 100 µM
- TGI (786-0 renal): 29.2 µM

Compound: Cc1c2cc[n+](C)cc2c(C)c2c1[nH]c1ccc(O)cc12
- TGI (HCT-116 colon): > 91.6 µM
- TGI (KM20L2 colon): > 100 µM
- TGI (SF-268 CNS): 23.7 µM
- TGI (P388/ADR leukemia): > 77.4 µM
- TGI (NCI-H460 lung): 24.7 µM
- TGI (LOX IMVI melanoma): > 96.4 µM
- TGI (HS 578T breast): 5.7 µM
- TGI (DMS 273 small cell lung): > 78.6 µM
- TGI (OVCAR-4 ovarian): > 100 µM
- TGI (SK-MEL-28 melanoma): 66 µM
- TGI (HT29 colon): > 81.1 µM
- TGI (NCI/ADR-RES ovarian): > 100 µM
- TGI (RXF 393 renal): > 100 µM
- TGI (SNB-75 CNS): 25.7 µM
- TGI (KM12 colon): > 86.9 µM
- TGI (SK-MEL-5 melanoma): 58.8 µM
- TGI (SN12C renal): 15.5 µM
- TGI (UACC-62 melanoma): 82.1 µM
- TGI (A549 NSCLC): 99.3 µM
- TGI (MDA-N): > 100 µM
- TGI (HCC-2998 colon): 98.7 µM
- TGI (DU-145 prostate): 74.7 µM
- TGI (CCRF-CEM leukemia): > 92.6 µM
- TGI (RPMI-8226 leukemia): > 100 µM
- TGI (SK-OV-3 ovarian): > 100 µM
- TGI (DMS 114 small cell lung): 69.6 µM
- TGI (MCF7 breast): > 39.4 µM
- TGI (SNB-78 CNS): > 100 µM
- TGI (UO-31 renal): 86.8 µM
- TGI (PC-3 prostate): > 100 µM
- TGI (T-47D breast): 11 µM
- TGI (MDA-MB-435): > 100 µM
- TGI (NCI-H226 lung): 16.6 µM
- TGI (TK-10 renal): > 100 µM
- TGI (SW-620 colon): > 100 µM
- TGI (K-562 leukemia): > 82.1 µM
- TGI (EKVX NSCLC): 83.4 µM
- TGI (M14 melanoma): 20.5 µM
- TGI (HL-60(TB) leukemia): > 87.9 µM
- TGI (SNB-19 CNS): 22.5 µM
- TGI (HOP-92 NSCLC): 52.4 µM
- TGI (IGROV1 ovarian): > 100 µM
- TGI (SF-295 CNS): 64.7 µM
- TGI (HCT-15 colon): > 100 µM
- TGI (M19-MEL melanoma): 48 µM
- TGI (SF-539 CNS): 75.2 µM
- TGI (DLD-1 colon): > 100 µM
- TGI (COLO 205 colon): > 91.9 µM
- TGI (NCI-H23 lung): 63.4 µM
- TGI (OVCAR-8 ovarian): > 98.3 µM
- TGI (HOP-62 NSCLC): 35 µM
- TGI (CAKI-1 renal): > 100 µM
- TGI (MDA-MB-231 breast): > 100 µM
- TGI (MOLT-4 leukemia): 58.3 µM
- TGI (HOP-18 NSCLC): > 94.5 µM
- TGI (SK-MEL-2 melanoma): > 96.9 µM
- TGI (OVCAR-3 ovarian): > 89.3 µM
- TGI (OVCAR-5 ovarian): > 100 µM
- TGI (UACC-257 melanoma): > 90.6 µM
- TGI (NCI-H522 lung): 55.9 µM
- TGI (MALME-3M melanoma): 26.4 µM
- TGI (SN12K1 renal): > 82.7 µM
- TGI (P388 leukemia): 38.7 µM
- TGI (BT-549 breast): 71.1 µM
- TGI (U251 CNS): 25 µM
- TGI (A498 renal): 99.4 µM
